{
  "source": "patent US20220370486A1",
  "about": "“COMBINATION TREATMENT OF SYSTEMIC FUNGAL INFECTIONS” (The Board of Trustees of the University of Illinois, priority 2019, published 2022)",
  "key": {"[1]": {"test": "Isothermal titration calorimetry (ITC) sterol binding", "from_the_text": "(§1) This key discovery opened a path to the rational development of a non-toxic AmB variant. To probe its predicted role in sterol binding, the hydroxyl group was synthetically deleted at the C2′ position on the mycosamine appendage.\nA practical 11-step synthesis of C2′epiAmB using a frontier site-selective acylation method was developed. Wilcock, B. C. et al., Nat Chem 2012, 4 (12), 996-1003; Uno, B. E. A synthesis enabled understanding of Amphotericin B leading to derivatives with improved therapeutic indices. University of Illinois at Urbana-Champaign, 2014. The sterol binding and cell killing activities was then determined."}, "[2]": {"system": "A. fumigatus A1163", "test": "In vitro antifungal activity (Evotec)", "assay_type": "cell-based", "conditions": "strain A1163", "from_the_text": "(§2) In vitro antifungal activity of C2′ epiAmB was compared with that of AmB against an extensive series of Candida and Aspergillus clinical isolates (FIG. 6A) at Evotec (Oxfordshire, UK). […] C2′epiAmB was also sent to the US national Fungus Testing Laboratory at UT-San Antonio for antifungal testing against an extended panel of especially challenging 40 Aspergillus clinical isolates, including azole-resistant A. fumigatus, A. flavus, and A. terreus (FIG. 6B)."}, "[3]": {"system": "A. fumigatus AF91", "test": "In vitro antifungal activity (Evotec)", "assay_type": "cell-based", "conditions": "strain AF91", "from_the_text": "as §2"}, "[4]": {"system": "A. fumigatus AF293", "test": "In vitro antifungal activity (Evotec)", "assay_type": "cell-based", "conditions": "strain AF293", "from_the_text": "as §2"}, "[5]": {"system": "A. fumigatus ATC204305", "test": "In vitro antifungal activity (Evotec)", "assay_type": "cell-based", "conditions": "strain ATC204305", "from_the_text": "as §2"}, "[6]": {"system": "C. albicans", "test": "Murine model of invasive candidiasis", "assay_type": "in vivo, mice", "description": "Andes, D. et al., Antimicrobial agents and chemotherapy 2001, 45 (3), 922-6. In fact, the PD parameter that best correlates with outcome is Cmax-/MIC. The same was subsequently observed in a pulmonary model of invasive aspergillosis. Wiederhold, N. P. et al., Antimicrobial agents and chemotherapy 2006, 50 (2), 469-73.\nA clinical isolate of C. albicans (SN250) was grown and quantified on SDA. For 24 h before infection, the organism was subcultured at 35° C. on SDA slants. A 106CFU/ml inoculum was prepared by placing six fungal colonies into 5 ml of sterile, depyrogenated normal (0.9%) saline warmed to 35° C. Six week-old ICR/Swiss specific-pathogen-free female mice were obtained from Harlan Sprague Dawley (Madison, Wis.). The mice were weighed (23-27 g) and disseminated candidiasis was induced via tail vein injection of 100 μl of inoculum. AmB and C2′ epiAmB were reconstituted in their deoxycholate form with 1.0 ml of saline5% dextrose. Each animal in the treatment group was given a single 200-μl intravenous (IV) injection of reconstituted AmB and C2′epiAmB 2 h after infection. Doses were calculated in terms of mg of compound per kg of body weight. At 24 h after infection, three animals per experimental condition were killed by CO2 asphyxiation. The kidneys from each animal were removed and homogenized. The homogenate was diluted serially tenfold with […] and plated on SDA. […]"}, "[7]": {"system": "primary hREC", "test": "Toxicity to primary hREC", "assay_type": "cell-based, human", "from_the_text": "as §1\nIn each case, C2′epiAmB is non-toxic to human red blood cells, primary hREC, mice, and rats up to the highest dose tested."}, "[8]": {"conditions": "rat, in vivo"}, "[9]": {"system": "yeast cells", "test": "Antifungal activity after ergosterol pre-complexation of the sponge", "assay_type": "cell-based", "conditions": "sponge pre-complexed with ergosterol", "from_the_text": "Anderson, T. M. et al., Nat Chem Biol 2014, 10 (5), 400-6. […] Davis, S. A., et al., Nat Chem Biol 2015, 11 (7), 481-7. To test whether C2′epiAmB primarily kills cells via the same sterol sponge mechanism, the C2′epiAmB sponge was similarly pre-complexed with ergosterol. […] Thus, C2′epiAmB similarly kills yeast primarily via sterol binding, and, by extension, the new compounds targeted in this application are expected to have a similar barrier to fungal resistance that has been observed for the past 50+years with AmB."}, "[10]": {"system": "clinically relevant invasive molds", "test": "Activity against broader panel of invasive molds", "assay_type": "cell-based", "conditions": "many strains, including pan-azole resistant strain F14196", "from_the_text": "as §2"}},
  "data": [
    {"smiles": "C[C@@H]1[C@H](O)[C@@H](C)/C=C/C=C/C=C/C=C/C=C/C=C/C=C/[C@H](OC2O[C@H](C)[C@@H](O)[C@H](N)[C@H]2O)CC2O[C@](O)(C[C@@H](O)C[C@@H](O)[C@H](O)CC[C@@H](O)C[C@@H](O)CC(=O)O[C@H]1C)C[C@H](O)[C@H]2C(=O)O", "note": "(stereo partly drawn) [C2′epiAmB, C2′epi amphotericin B]", "values": [
      {"measurement": "binding of ergosterol by ITC", "setting": "[1]", "result": "bind ergosterol"},
      {"measurement": "binding of cholesterol by ITC", "setting": "[1]; within the detection limits of ITC", "result": "not (detectably) cholesterol"},
      {"measurement": "less potent than AmB", "setting": "[2]", "result": 4, "unit": "fold"},
      {"measurement": "less potent than AmB", "setting": "[3]", "result": "> 32", "unit": "times"},
      {"measurement": "less potent than AmB", "setting": "[4]", "result": 4, "unit": "fold"},
      {"measurement": "less potent than AmB", "setting": "[5]", "result": 4, "unit": "fold"},
      {"measurement": "fungal burden", "setting": "[6]; 16 mg/kg dose", "result": "outstanding reductions in fungal burden"},
      {"measurement": "efficacy", "setting": "[6]; neutropenic ICR/Swiss mice, deoxycholate complex, single injection 1, 4, 8, or 16 mg/kg", "result": "dose-dependent efficacy"},
      {"measurement": "toxicity to primary hREC", "setting": "[7]", "result": "non-toxic"},
      {"measurement": "toxicity in rats", "setting": "[8]", "result": "non-toxic"},
      {"measurement": "change of potency upon ergosterol pre-complexation", "setting": "[9]", "result": "same reduction in potency"},
      {"measurement": "antifungal potency", "setting": "[10]", "result": "good antifungal potency"}
    ]}
  ]
}
